Measured values as given in patent publication US6197760A (priority 2000, dated 2001).
“Also recorded” adds a separate entry of the source. Read-outs that look alike come from different tables or passages of the source.

Columns and labels:
M5076 sarcoma [1] = conditions: cited from earlier work
LOX-IMVI melanoma = experiment: Evaluation against i.p. implanted LOX-IMVI melanoma (Table 6); format: in vivo, human; conditions: for 55-Day Surv./Total / % ILS / Median Day of Death: IP, Q1DX1 (1), 40 mg/kg/dose; for increase in life span (ILS) / survivors: Table 6
Procedure: BM-IPM was evaluated vs. human LOX-IMVI melanoma and produced a 52% increase in life span (ILS) and 20% survivors, while IPM yielded an identical ILS with no survivors.
Evaluation of BM-IPM Against I.P. Implanted Human
Treatment: IP: Q1DX1 (1) Therapeutic Response

Lewis lung carcinoma = conditions: mouse, in vivo; for % ILS (increase in life span, excluding survivors) / Log kill total (Log10 cell kill) / Tumour-free survivors: ip
mammary tumor 16/C = test system: mammary tumor 16/C; design: species or system murine; conditions: mouse, in vivo
in vivo [2] = conditions: mouse, ip
[3] = test system: MCF-7 mammary tumor xenograft; design: species or system human; conditions: in vivo, sc
[4] = clinical; cited from earlier work
in vivo [5] = conditions: mouse, ip; remark: listed apart in the source
[6] = test system: MX-1 mammary tumor xenograft; format: in vivo, human
L1210/CPA leukemia = format: in vivo, male CDF1 mice
P388 leukemia [7] = conditions: cited from earlier work
P388 leukemia [8] = test system: P388 leukemia; design: species or system murine; conditions: mouse, in vivo; for 45-Day Surv/Total / % ILS / Approx. Net Log10 Change In Tumor Burden at End of Rx / Median Day of Death: ip, 100 mg/kg
[9] = patients treated with Ifos; cited from earlier work
M5076 sarcoma [10] = experiment: Response of s.c. implanted M5076 sarcoma (Table 4); format: in vivo, murine
Procedure: Response of S.C. Implanted M5076 Sarcoma to Treatment with
The compounds were injected i.p. daily on days 11-15.

[11] = test system: experimental leukemias and solid tumors; design: species or system mice and rats; conditions: in vivo
[12] = metabolite of CPA; cited from earlier work
[13] = test system: mixedfunction oxidase activities (cytochrome P-450, aryl hydrocarbon hydroxylase, aminopyrinedemethylase); glutathione; conditions: cited from earlier work
[14] = L1210/0, i.p. day 2 only at MTD (CPA 200, Ifos 431, IPM 100 mg/kg)
[15] = L1210/0, i.p. day 2 only at MTD (CPA 200, Ifos 431, IPM 100 mg/kg), tumor burden at start 8.5 × 10^8 cells
[16] = L1210/CPA, i.p. day 2 only at MTD (CPA 200, Ifos 431, IPM 100 mg/kg)
[17] = L1210/CPA, i.p. day 2 only at MTD (CPA 200, Ifos 431, IPM 100 mg/kg), tumor burden at start 6.0 × 10^7 cells
[18] = 18 mg/kg i.p. daily on days 11-15
[19] = 27 mg/kg i.p. daily on days 11-15
[20] = 40 mg/kg i.p. daily on days 11-15
[21] = MTD Dosage (highest non-toxic dose, LD10 or less)

Row | SMILES | 55-Day Surv./Total (LOX-IMVI melanoma) | % ILS (LOX-IMVI melanoma) | Median Day of Death (LOX-IMVI melanoma) [days] | increase in life span (ILS) (LOX-IMVI melanoma) | survivors (LOX-IMVI melanoma) | comparative activity against Lewis lung carcinoma (Lewis lung carcinoma) | cure rate (Lewis lung carcinoma) | % ILS (increase in life span, excluding survivors) (Lewis lung carcinoma) | Log kill total (Log10 cell kill) (Lewis lung carcinoma) | Tumour-free survivors (Lewis lung carcinoma) | tumor response / comparative activity vs. 16/C (mammary tumor 16/C) | % ILS (dying mice only) (L1210/0 leukemia; [14]) | Net log10 reduction in tumor burden after therapy (L1210/0 leukemia; [14]) [log10] | Day 60 survivors/total (L1210/0 leukemia; [15]) | Days delay (T-C) [3] | MTD (in vivo [5]) [mg/kg] | activity vs. MX-1 ([6]; experiment analogous to MCF-7) | % ILS (dying mice only) (L1210/CPA leukemia; [16]) | Net log10 reduction in tumor burden after therapy (L1210/CPA leukemia; [16]) [log10] | Day 60 survivors/total (L1210/CPA leukemia; [17]) | also measured
1 | O=P1(N(CCCl)CCCl)NCCCO1 (stereo not shown) [CPA, cyclophosphamide] | 0/5 | +121% | 42.0 | 121% | no survivors | equivalent activity at equal host toxicity | 50-70% | 68 | > 6.8 | 5/10 | none of which caused tumor regression | +107% | 7 | 0/10 | 6.7 | 200 | high activity | +57% | 4 | 0/10 | comparative activity vs. M5076 sarcoma, historically (M5076 sarcoma [1]; historical): comparably active to CM-IPM; MTD (in vivo [2]): 200 mg/kg; toxicity in patients [4]: hemorrhagic cystitis; comparative activity vs. P388 leukemia, historically (P388 leukemia [7]; historical): comparably active to CM-IPM
2 | CS(=O)(=O)OCCNP(=O)(O)NCCF [FM-IPM] |  |  |  |  |  |  |  |  |  |  |  |  |  |  |  |  |  |  |  |  | 45-Day Surv/Total (P388 leukemia [8]): 0/5; % ILS (P388 leukemia [8]): +10; Approx. Net Log10 Change In Tumor Burden at End of Rx (P388 leukemia [8]): -1.4; Median Day of Death (P388 leukemia [8]): 13.0
3 | O=P(O)(NCCCl)NCCCl [IPM, isophosphoramide mustard] | 0/5 | +52% | 29.0 | identical ILS | no survivors | equivalent activity at equal host toxicity | 50-70% | 34 | > 2.1 | 6/10 | limited regression | +128% | 8 | 0/10 | 33.9 | 100 | good activity; also recorded: more active but less so than CPA and Ifos | +114% | 7 | 1/10 | metabolite of Ifos in patients [9]: major metabolite; Days delay (T-C) (M5076 sarcoma [10]; [18]): 1.0 days; Days to 2 Doublings (M5076 sarcoma [10]; [18]): 10.3 days; Tumor-free Surv/Total (M5076 sarcoma [10]; [18]): 0/6; Days delay (T-C) (M5076 sarcoma [10]; [19]): 3.3 days; Days to 2 Doublings (M5076 sarcoma [10]; [19]): 12.6 days; Tumor-free Surv/Total (M5076 sarcoma [10]; [19]): 0/6; Days delay (T-C) (M5076 sarcoma [10]; [20]): 6.1 days; Days to 2 Doublings (M5076 sarcoma [10]; [20]): 15.4 days; Tumor-free Surv/Total (M5076 sarcoma [10]; [20]): 0/6; days T-C (M5076 sarcoma [10]; Table 4, dose not given): 6.1 days; log cell kill (P388 leukemia [8]): 4.8 log; 45-Day Surv/Total (P388 leukemia [8]): 1/5; % ILS (P388 leukemia [8]): +64; Approx. Net Log10 Change In Tumor Burden at End of Rx (P388 leukemia [8]): -4.8; Median Day of Death (P388 leukemia [8]): 18.0; MTD (in vivo [2]; [21]): 100 mg/kg; comparative therapeutic efficacy against experimental leukemias and solid tumors [11]: generally comparable to that of CPA and Ifos
4 | O=P1(NCCCl)OCCCN1CCCl (stereo not shown) [Ifos, ifosfamide] |  |  |  |  |  | equivalent activity at equal host toxicity | 50-70% | 55 | > 4.5 | 7/10 | none of which caused tumor regression |  |  |  | > 39.7 | 300 |  |  |  |  | comparative activity vs. M5076 sarcoma, historically (M5076 sarcoma [1]; mouse, in vivo): comparably active to CM-IPM; % ILS (dying mice only) (L1210/0 leukemia; mouse, in vivo): +185; Day 60 survivors/total (L1210/0 leukemia; mouse, in vivo): 0/10; Net log10 reduction in tumor burden after therapy (L1210/0 leukemia; mouse, in vivo): 8; MTD Dosage (highest non-toxic dose, LD10 or less) (L1210/0 leukemia; mouse, in vivo, ip): 289 mg/kg; % ILS (dying mice only) (L1210/0 leukemia; mouse, in vivo, ip, 289 mg/kg): +114; Day 60 survivors/total (L1210/0 leukemia; mouse, in vivo, ip, 289 mg/kg): 0/9; Net log10 reduction in tumor burden after therapy (L1210/0 leukemia; mouse, in vivo, ip, 289 mg/kg): 8; MTD (in vivo [2]; [21]): 431 mg/kg; activity vs. MX-1 ([6]; in vivo): high activity; % ILS (dying mice only) (L1210/CPA leukemia; mouse, in vivo): +85; Day 60 survivors/total (L1210/CPA leukemia; mouse, in vivo): 0/10; Net log10 reduction in tumor burden after therapy (L1210/CPA leukemia; mouse, in vivo): 5; % ILS (dying mice only) (L1210/CPA leukemia; mouse, in vivo, ip, 289 mg/kg): +57; Day 60 survivors/total (L1210/CPA leukemia; mouse, in vivo, ip, 289 mg/kg): 0/10; Net log10 reduction in tumor burden after therapy (L1210/CPA leukemia; mouse, in vivo, ip, 289 mg/kg): 4; comparative activity vs. P388 leukemia, historically (P388 leukemia [7]; mouse, in vivo): comparably active to CM-IPM
5 | N[C@@H](Cc1ccc(N(CCCl)CCCl)cc1)C(=O)O [Melphalan] |  |  |  |  |  |  |  |  |  |  |  |  |  |  | 28.1 |  |  |  |  |  | 
6 | C=CC=O [acrolein] |  |  |  |  |  |  |  |  |  |  |  |  |  |  |  |  |  |  |  |  | teratogenicity [12]: teratogenic; liver toxicity [13]: glutathione depletion and destruction of mixedfunction oxidase activities
